Data as given in patent US8445509B2, “Fused heterocyclic derivatives and use thereof” (Takeda Pharmaceutical Company Limited, priority 2008, dated 2013).

How the values were obtained:
[1] = system: Human umbilical vein-derived vascular endothelial cells (HUVEC); experiment: Vascular endothelial cell proliferation inhibitory test (VEGF-stimulated HUVEC); assay type: cell-based; conditions: 120 h, 5 days of culture with VEGF
Protocol: Human umbilical vein-derived vascular endothelial cells (HUVEC purchased from KURABO […] LTD.) were cultured in an incubator at 37° C., 5% carbon dioxide in a vascular endothelial cell medium (Invitrogen) containing 3% bovine fetal serum and 2.5 ng/mL basic fibroblast growth factor. To be specific, HUVEC was suspended in a vascular endothelial cell medium containing the aforementioned 3% bovine fetal serum and plated on a 96 well flat bottom plate by 50 μL (3000 cells) each well. After culture overnight, various concentrations of the test substance and 120 ng/mL of vascular endothelial growth factor (VEGF) were dissolved in a vascular endothelial cell medium containing 3% bovine fetal serum and added to each well by 50 μL. After 5 days of culture, a Cell counting kit-8 reagent (DOJINDO LABORATORIES) was added to each well by 10 μL, and the mixture was reacted in an incubator at 37° C., 5% carbon dioxide for 2-3 hr. The absorbance at 450 nm was measured by a microtiter plate reader and the cell proliferation inhibitory activity was determined. Using the absorbance with addition of a test substance at each concentration and based on the nonlinear least-squares analysis using a logistic curve of SAS system NLIN procedure, the concentration of the test substance (IC50 value) necessary for showing 50% of the value obtained without addition of the test substance was calculated.

[2] = target: T1, VEGFR2 intracellular domain protein (Homo sapiens, UniProt P35968); experiment: Vascular endothelial growth factor receptor 2 (VEGFR2) kinase inhibitory activity (AlphaScreen); assay type: biochemical
T1 construct: made in house; host or cells: SF-21 insect cells, recombinant baculovirus BAC-VEGFR2
T1 sequence (P35968 786-1356 limits assumed): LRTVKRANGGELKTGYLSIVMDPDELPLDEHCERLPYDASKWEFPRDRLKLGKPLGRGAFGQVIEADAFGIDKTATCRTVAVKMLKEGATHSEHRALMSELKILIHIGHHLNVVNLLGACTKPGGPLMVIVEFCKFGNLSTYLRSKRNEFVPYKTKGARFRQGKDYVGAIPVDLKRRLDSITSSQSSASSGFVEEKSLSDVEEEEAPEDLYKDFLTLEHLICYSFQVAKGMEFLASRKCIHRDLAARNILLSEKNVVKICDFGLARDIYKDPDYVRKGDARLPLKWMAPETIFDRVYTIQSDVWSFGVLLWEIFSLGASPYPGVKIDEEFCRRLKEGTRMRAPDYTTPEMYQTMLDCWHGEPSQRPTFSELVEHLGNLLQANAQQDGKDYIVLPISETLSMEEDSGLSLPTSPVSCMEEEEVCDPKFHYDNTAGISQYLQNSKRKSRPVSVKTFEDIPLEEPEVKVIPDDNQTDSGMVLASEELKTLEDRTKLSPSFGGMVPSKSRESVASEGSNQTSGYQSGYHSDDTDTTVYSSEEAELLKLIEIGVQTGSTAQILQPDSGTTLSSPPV
Protocol: Human vascular endothelial growth factor receptor 2 (hereinafter to be referred to as VEGFR2) gene was cloned by PCR using cDNA Libraries Human Placenta (Clontech) as a template. […] The primer base sequence is shown below.
SF-21 cells were sown at 1×10^6 cells/mL to Sf-900II SFM medium (1 L, Invitrogen) containing 10% fetal bovine serum (trace), 50 mg/L Gentamicin (Invitrogen) and 0.1% Pluronic F-68 (Invitrogen), and shaking culture was performed using a 2 L volume Erlenmeyer flask at 27° C., 100 rpm. After culturing for 24 hrs, recombinant baculovirus BAC-VEGFR2 (13.4 mL) was added to the mixture, and the mixture was further cultured for 3 days. The culture medium was centrifuged at 2,000 rpm for 5 min to give virus-infected cells. The infected cells were washed with a phosphate buffered saline (Invitrogen), centrifuged under the same conditions, and the cells were preserved at −80° C. The cryopreserved cells were thawed in ice, suspended in buffer A (50 mM Tris buffer (30 mL, pH 7.4) containing 20% glycerol, 0.15 M NaCl) supplemented with Complete Protease Inhibitor (Boehringer), and ruptured 3 times with a Polytron homogenizer (Kinematica) at 20,000 rpm for 30 sec. The ruptured medium was clarified by centrifugation at 40,000 rpm for 30 min and filtered with a 0.45 μm filter. The filtrate was passed through a column packed with Anti-FLAG M2 Affinity Gel (4 mL, Sigma) at a flow rate of about 0.5 mL/min. The column was washed with buffer A, and eluted with buffer A containing 100 μg/mL of FLAG peptide. The eluate was concentrated with Vivaspin 20 (Vivascience) having a molecular weight cut off of 30K. The buffer of this concentrate was exchanged using NAP™ 25 column (Amersham Bioscience) equilibrated with buffer A. The fractions containing intracellular domain protein of VEGFR2 were collected, glycerol was added to the final concentration of 50% and cryopreserved at −80° C.
(§1) A test compound dissolved in dimethyl sulfoxide (DMSO) was diluted with a buffer (50 mM Tris-HCl (pH 7.5), 5 mM MgCl2, 5 mM MnCl2, 2 mM dithiothreitol, 0.01% Tween-20). To this compound solution (5 μL) was added a buffer (10 μL) containing 50 ng/mL of VEGFR2 intracellular domain protein and 250 ng/mL of biotin labeled polypeptide biotinyl-poly-Glu:Tyr (4:1) (CIS bio International). […] The reaction solution was allowed to stand at 25° C. for 16 hrs, and the wells were counted using a plate reader (Fusion™ (PerkinElmer)). The kinase inhibitory rate (%) of the test compound was calculated by the following formula: Inhibitory rate (%)=(1−(count of test compound−blank)÷(control−blank))×100
(§2) The count of the solution reacted without addition of the compound was used as a “control”, and the count of the solution without the compound and ATP was used as a “blank”.

[3] = target: T2, c-Met intracellular domain protein (Homo sapiens, UniProt P08581); experiment: Hepatocyte growth factor receptor (c-Met) kinase inhibitory activity (AlphaScreen); assay type: biochemical; conditions: for inhibition at 1 µM: 1 μM test compound, read-out: inhibitory rate (%) at 1 μM
T2 construct: 2.5 ng/ml of c-Met intracellular domain protein (Millipore); purchased Millipore
T2 sequence (P08581 956-1390 limits assumed): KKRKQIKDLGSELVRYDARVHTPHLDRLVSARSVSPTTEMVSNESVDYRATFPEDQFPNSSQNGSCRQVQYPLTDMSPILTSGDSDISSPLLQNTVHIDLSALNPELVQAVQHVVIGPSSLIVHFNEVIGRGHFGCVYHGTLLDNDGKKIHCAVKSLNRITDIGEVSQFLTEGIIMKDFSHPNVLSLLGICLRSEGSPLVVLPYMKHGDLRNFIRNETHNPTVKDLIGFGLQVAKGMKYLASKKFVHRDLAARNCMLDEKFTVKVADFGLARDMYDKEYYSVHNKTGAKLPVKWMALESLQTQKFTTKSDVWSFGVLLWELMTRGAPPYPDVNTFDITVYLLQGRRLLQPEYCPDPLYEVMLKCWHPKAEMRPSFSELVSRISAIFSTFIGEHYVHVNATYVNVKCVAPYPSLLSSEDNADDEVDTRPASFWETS
Protocol: as §1, with “containing 2.5 ng/ml” for “containing 50 ng/mL”, “of c-Met” for “of VEGFR2”, “protein (Millipore)” for “protein”
as §2

IC50 [2]	IC50 [3]	inhibition at 1 µM [3]	Compound	IC50 [1]
≤ 1000 nM	≤ 1000 nM	≥ 80%	Cc1ccc(C(=O)Nc2ccc(Oc3ccc4nc(NC(=O)C5CC5)cn4c3)cn2)c(=O)n1-c1ccc(F)cc1 [Example 60, N-[5-({2-[(cyclopropylcarbonyl)amino]imidazo[1,2-a]pyridin-6-yl}oxy)pyridin-2-yl]-1-(4-fluorophenyl)-6-methyl-2-oxo-1,2-dihydropyridine-3-carboxamide]	≤ 2000 nM
≤ 1000 nM	≤ 1000 nM	≥ 80%	O=C(Nc1cn2cc(Oc3ccc(NC(=O)N4CCN(c5ccc(F)cc5)C4=O)cc3F)ccc2n1)C1CC1 [Example 53, N-[4-({2-[(cyclopropylcarbonyl)amino]imidazo[1,2-a]pyridin-6-yl}oxy)-3-sfluorophenyl]-3-(4-fluorophenyl)-2-oxoimidazolidine-1-carboxamide]	≤ 2000 nM
≤ 1000 nM	≤ 1000 nM	≥ 80%	O=C(Nc1cn2cc(Oc3ccc(NC(=O)C4(C(=O)Nc5ccc(F)cc5)CC4)cc3F)ccc2n1)C1CC1 [Example 11, N-[4-({2-[(cyclopropylcarbonyl)amino]imidazo[1,2-a]pyridin-6-yl}oxy)-3-fluorophenyl]-N′-(4-fluorophenyl)cyclopropane-1,1-dicarboxamide]	≤ 2000 nM
≤ 1000 nM	≤ 1000 nM	≥ 80%	Cc1ccc(C(=O)Nc2ccc(Oc3ccc4nc(NC(=O)C5CC5)cn4c3)cn2)[n+]([O-])c1-c1ccc(F)cc1 [Example 61, N-[5-({2-[(cyclopropylcarbonyl)amino]imidazo[1,2-a]pyridin-6-yl}oxy)pyridin-2-yl]-6-(4-fluorophenyl)-5-methylpyridine-2-carboxamide 1-oxide]	≤ 2000 nM
≤ 1000 nM	≤ 1000 nM	≥ 80%	O=C(Nc1cn2cc(Oc3ccc(NC(=O)C4(C(=O)Nc5ccccc5)CC4)cc3F)ccc2n1)C1CC1 [Example 14, N-[4-({2-[(cyclopropylcarbonyl)amino]imidazo[1,2-a]pyridin-6-yl}oxy)-3-fluorophenyl]-N′-phenylcyclopropane-1,1-dicarboxamide]	≤ 2000 nM
≤ 1000 nM	≤ 1000 nM	≥ 80%	Cc1ccc(C(=O)Nc2ccc(Oc3ccn4nc(NC(=O)C5CC5)nc4c3)c(F)c2)c(=O)n1-c1ccc(F)cc1 [Example 76, N-[4-({2-[(cyclopropylcarbonyl)amino][1,2,4]triazolo[1,5-a]pyridine-7-yl}oxy)-3-fluorophenyl]-1-(4-fluorophenyl)-6-methyl-2-oxo-1,2-dihydropyridine-3-carboxamide]	≤ 2000 nM
≤ 1000 nM	≤ 1000 nM	≥ 80%	Cc1cc(C(=O)Nc2ccc(Oc3ccc4nc(NC(=O)C5CC5)cn4c3)c(F)c2)c(=O)n(-c2ccc(F)cc2)c1C [Example 70, N-[4-({2-[(cyclopropylcarbonyl)amino]imidazo[1,2-a]pyridin-6-yl}oxy)-3-fluorophenyl]-1-(4-fluorophenyl)-5,6-dimethyl-2-oxo-1,2-dihydropyridine-3-carboxamide]	≤ 2000 nM
≤ 1000 nM	≤ 1000 nM	≥ 80%	Cc1ccc(C(=O)Nc2ccc(Oc3ccc4nc(NC(=O)C5CC5)cn4c3)c(F)c2)c(=O)n1-c1cccc(F)c1 [Example 75, N-[4-({2-[(cyclopropylcarbonyl)amino]imidazo[1,2-a]pyridin-6-yl}oxy)-3-fluorophenyl]-1-(3-fluorophenyl)-6-methyl-2-oxo-1,2-dihydropyridine-3-carboxamide]	≤ 2000 nM
≤ 1000 nM	≤ 1000 nM	≥ 80%	O=C(Nc1nc2ccc(Oc3ccc(NC(=O)C4(C(=O)Nc5ccccc5)CC4)cc3F)cc2s1)C1CC1 [Example 18, N-[4-({2-[(cyclopropylcarbonyl)amino]-1,3-benzothiazol-6-yl}oxy)-3-fluorophenyl]-N′-phenylcyclopropane-1,1-dicarboxamide]	≤ 2000 nM
≤ 1000 nM	≤ 1000 nM	≥ 80%	Cc1ccc(C(=O)Nc2ccc(Oc3ccc4nc(NC(=O)C5CC5)cn4c3)c(F)c2)c(=O)n1-c1ccc(F)cc1.Cl [Example 32, N-[4-({2-[(cyclopropylcarbonyl)amino]imidazo[1,2-a]pyridin-6-yl}oxy)-3-fluorophenyl]-1-(4-fluorophenyl)-6-methyl-2-oxo-1,2-dihydropyridine-3-carboxamide hydrochloride]	≤ 2000 nM
≤ 1000 nM	≤ 1000 nM	≥ 80%	CC1CCN(C(=O)Nc2ccc(Oc3ccc4nc(NC(=O)C5CC5)cn4c3)c(F)c2)C(=O)N1c1ccc(F)cc1 (centres unmarked) [Example 80, N-[4-({2-[(cyclopropylcarbonyl)amino]imidazo[1,2-a]pyridin-6-yl}oxy)-3-fluorophenyl]-3-(4-fluorophenyl)-4-methyl-2-oxotetrahydropyrimidine-1(2H)-carboxamide]	≤ 2000 nM
≤ 1000 nM	≤ 1000 nM	≥ 80%	Cc1ccc(C(=O)Nc2ccc(Oc3ccc4nc(NC(=O)C5CC5)cn4c3)c(Cl)c2)c(=O)n1-c1ccc(F)cc1 [Example 57, N-[3-chloro-4-({2-[(cyclopropylcarbonyl)amino]imidazo[1,2-a]pyridin-6-yl}oxy)phenyl]-1-(4-fluorophenyl)-6-methyl-2-oxo-1,2-dihydropyridine-3-carboxamide]	≤ 2000 nM
≤ 1000 nM	≤ 1000 nM	≥ 80%	CC1=C(c2ccc(F)cc2)C(=O)N(C(=O)Nc2ccc(Oc3ccc4nc(NC(=O)C5CC5)cn4c3)c(F)c2)CC1 [Example 81, N-[4-({2-[(cyclopropylcarbonyl)amino]imidazo[1,2-a]pyridin-6-yl}oxy)-3-fluorophenyl]-5-(4-fluorophenyl)-4-methyl-6-oxo-3,6-dihydropyridine-1(2H)-carboxamide]	≤ 2000 nM
≤ 1000 nM	≤ 1000 nM	≥ 80%	Cc1ccc(C(=O)Nc2ccc(Oc3ccc4nc(NC(=O)C5CC5)cn4c3)cc2)[n+]([O-])c1-c1ccc(F)cc1 [Example 72, N-[4-({2-[(cyclopropylcarbonyl)amino]imidazo[1,2-a]pyridin-6-yl}oxy)phenyl]-6-(4-fluorophenyl)-5-methylpyridine-2-carboxamide 1-oxide]	≤ 2000 nM
